According to the SangsterLogP compilation:

Experiment: from Draber, W.; Büchel, H.; Dickore, K.; Trebst, A.; Pistorius, E. (1969). Structure-activity correlation of 1,2,4-triazinones, a new group of photosynthesis inhibitors. In: Progress in Photosynthesis …
Conditions: pH 7.0

CC(C)c1nnc(SCC(=O)c2ccccc2)n(N)c1=O
logD: 2.07

CSc1nncc(=O)n1N
logD: 0.38

CCCCNc1nnc(C(C)C)c(=O)n1N
logD: 1.78

CCCSc1nnc(C(C)C)c(=O)n1N
logD: 2.12

CCSc1nnc(C(C)C)c(=O)n1N
logD: 1.52

CSc1nnc(C(C)(C)C)c(=O)n1N
logD: 1.7

CSc1nnc(C2CCCCO2)c(=O)n1N (stereo not given)
logD: 0.38

CCCCCCc1nnc(SC)n(N)c1=O
logD: 2.68

CSc1nnc(CCC(C)C)c(=O)n1N
logD: 1.85

CSc1nnc(-c2ccccc2)c(=O)n1N
logD: 1.66

COc1nnc(C(C)C)c(=O)n1N
logD: -0.06

CCc1nnc(SC)n(N)c1=O
logD: 0.46

CNc1nnc(C(C)C)c(=O)n1N
logD: 0.3

CC(C)Sc1nnc(C(C)C)c(=O)n1N
logD: 2.06

CC(C)c1nnc(N2CCOCC2)n(N)c1=O
logD: 0.49
